Measured values: patent US6100267A, “Quinoline- and naphthalenecarboxamides, pharmaceutical compositions and methods of inhibiting calpain” (SmithKline Beecham Corporation, priority 1999, dated 2000)
pIC50: −log10 of the molar value. Counter-ions that a name gives are not always drawn.

Tested on: calpain
Test: inhibition of calpain in vitro, synthetic fluorogenic substrates (Sasaki et al.)
Type: biochemical
Conditions: percent decrease in rate of substrate hydrolysis
Method: The assays were performed using synthetic fluorogenic substrates. Inhibition of enzyme activity was calculated on the percent decease in the rate of substrate hydrolysis in the presence of inhibitor relative to the rate in its absence. IC50 s(nM) were calculated.

`O=C[C@H](CCCCNS(=O)(=O)c1ccccc1)NC(=O)c1cc(-c2ccccc2)nc2ccccc12` [Example 10, (S)-N-[1-Formyl-5-[(phenylsulfonyl)amino]pentyl]-2-phenyl-4-quinolinecarboxamide] and `O=C[C@H](Cc1ccccc1)NC(=O)c1cc(-c2ccccc2)nc2ccccc12` [Example 1, (S)-N-(1-formyl-2-phenylethyl)-2-phenyl-4-quinolinecarboxamide] are within 0.2 log units of each other in pIC50: 7.38 for the first, 7.19 for the second.

First: O=C[C@H](Cc1ccccc1)NC(=O)c1cc(C23CC4CC(CC(C4)C2)C3)nc2ccccc12 [Example 4, (S)-2-(1-Adamantyl)-N-(1-formyl-2-phenylethyl)-4-quinolinecarboxamide]
Second: O=C[C@H](Cc1ccccc1)NC(=O)c1cc(-c2ccc(Cl)cc2)nc2ccccc12 [Example 2, (S)-2-(4-Chlorophenyl)-N-(1-formyl-2-phenylethyl)-4-quinolinecarboxamide]
The pIC50 of the first is 0.27 log units lower: 6.91 for the first, 7.18 for the second.

First: O=C[C@H](Cc1ccccc1)NC(=O)c1cc(N2CCN(c3ccccc3)CC2)nc2ccccc12 [Example 8, (S)-N-(1-Formyl-2-phenylethyl)-2-(4-phenyl-1-piperazinyl)-4-quinolinecarboxamide]
Second: O=C[C@H](Cc1ccccc1)NC(=O)c1cc(C#Cc2ccccc2)nc2ccccc12 [Example 12, (S)-N-(1-formyl-2-phenylethyl)-2-(phenylethynyl)-4-quinolinecarboxamide]
The pIC50 of the first is 0.50 log units lower: 7.42 for the first, 7.92 for the second.

First: O=C[C@H](Cc1ccccc1)NC(=O)c1cc(-c2ccc(-c3ccccc3)cc2)nc2ccccc12 [Example 3, (S)-2-[1.1'-Biphenyl]-4-yl-N-(1-formyl-2-phenylethyl)-4-quinolinecarboxamide]
Second: O=C[C@H](Cc1ccccc1)NC(=O)c1cc(-c2ccc(-c3cccnc3)cc2)nc2ccccc12 [Example 9, (S)-N-(1-Formyl-2-phenylethyl)-2-[4-(3-pyridinyl)phenyl]-4-quinolinecarboxamide]
The pIC50 of the first is 0.36 log units higher: 7.70 for the first, 7.34 for the second.

First: O=C[C@H](Cc1ccccc1)NC(=O)c1cc(-c2ccc(Oc3ccccc3)cc2)nc2ccccc12 [Example 5, (S)-N-(1-Formyl-2-phenylethyl)-2-(4-phenoxyphenyl)-4-quinolinecarboxamide]
Second: O=C[C@H](Cc1ccccc1)NC(=O)c1cc(-c2ccccc2-c2ccccc2)nc2ccccc12 [Example 6, (S)-2-[1,1'-Biphenyl]-2-yl-N-(1-formyl-2-phenylethyl)-4-quinolinecarboxamide]
The pIC50 of the first is 0.23 log units lower: 7.49 for the first, 7.72 for the second. The second is the more potent here.

First: O=C[C@H](CCCCNC(=O)OCc1ccncc1)NC(=O)c1cc(-c2ccccc2)nc2ccccc12 [Example 11, (S)-N-(1-Formyl-5-[(4-pyridylmethoxy)carbonylamino]pentyl]-2-phenyl-4-quinolinecarboxamide dihydrochloride salt]
Second: CCCCNC(=O)C(=O)[C@H](Cc1ccccc1)NC(=O)c1cc(C#Cc2ccccc2)nc2ccccc12 [Example 13, N-[3-(n-butylamino)-2,3-dioxo-1-(phenylmethyl)]-2-(phenylethynyl)-4-quinolinecarboxamide]
The pIC50 of the first is 0.31 log units lower: 6.80 for the first, 7.11 for the second. The second is the more potent here.
